Data from PubChem BioAssay AID2060501 (Molecular Pharmacology Branch, DTP, NCI, 2025).

Tested on: 282377-053-R-J1-PDC complex spheroids, viability
Assay: Anticancer human tumor 282377-053-R-J1-PDC patient-derived colon adenocarcinoma cell line growth inhibition [GQUAD]
Details: for IC50: curve of first compound; for viability, T/C: stronger effect = lower value
How it was run: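 Viability of tumor cells grown as complex spheroids with endothelial and stromal cells, exposed to drug combinations. Top concentration at or near clinical Cmax (else 10 microM), diluted in half-log increments.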

[1] = second compound 0.0316 µM, first compound 0.0316 µM
[2] = second compound 0.0316 µM, first compound 0.1 µM
[3] = second compound 0.0316 µM, first compound 0.316 µM
[4] = second compound 0.0316 µM, first compound 1 µM
[5] = second compound 0.0316 µM, first compound 3.16 µM
[6] = second compound 0.0316 µM, first compound 10 µM
[7] = second compound 0.1 µM, first compound 0.0316 µM
[8] = second compound 0.1 µM, first compound 0.1 µM
[9] = second compound 0.1 µM, first compound 0.316 µM
[10] = second compound 0.1 µM, first compound 1 µM
[11] = second compound 0.1 µM, first compound 3.16 µM
[12] = second compound 0.1 µM, first compound 10 µM
[13] = second compound 0.316 µM, first compound 0.0316 µM
[14] = second compound 0.316 µM, first compound 0.1 µM
[15] = second compound 0.316 µM, first compound 0.316 µM
[16] = second compound 0.316 µM, first compound 1 µM
[17] = second compound 0.316 µM, first compound 3.16 µM
[18] = second compound 0.316 µM, first compound 10 µM
[19] = second compound 1 µM, first compound 0.0316 µM
[20] = second compound 1 µM, first compound 0.1 µM
[21] = second compound 1 µM, first compound 0.316 µM
[22] = second compound 1 µM, first compound 1 µM
[23] = second compound 1 µM, first compound 3.16 µM
[24] = second compound 1 µM, first compound 10 µM
[25] = second compound 3.16 µM, first compound 0.0316 µM
[26] = second compound 3.16 µM, first compound 0.1 µM
[27] = second compound 3.16 µM, first compound 0.316 µM
[28] = second compound 3.16 µM, first compound 1 µM
[29] = second compound 3.16 µM, first compound 3.16 µM
[30] = second compound 3.16 µM, first compound 10 µM
[31] = second compound 10 µM, first compound 0.0316 µM
[32] = second compound 10 µM, first compound 0.1 µM
[33] = second compound 10 µM, first compound 0.316 µM
[34] = second compound 10 µM, first compound 1 µM
[35] = second compound 10 µM, first compound 3.16 µM
[36] = second compound 10 µM, first compound 10 µM
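Note: spheroids exposed to compounds for 7 days before readout.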
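Throughout, for viability, T/C: percent of vehicle DMSO control viability with 100% = untreated-like growth.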

## C=CCn1c(=O)c2cnc(Nc3ccc(N4CCN(C)CC4)cc3)nc2n1-c1cccc(C(C)(C)O)n1 + Cc1cnc(CNC(=O)c2c(=O)c3ccc(N4CCCN(C)CC4)nc3n3c2sc2ccccc23)cn1
Second compound 0.0316 µM
  IC50: 1590 nM
Second compound 0.1 µM
  IC50: 1470 nM
Second compound 0.316 µM
  IC50: 731 nM
Second compound 1 µM
  IC50: 651 nM
Second compound 3.16 µM
  IC50: 295 nM
Second compound 10 µM
  IC50: < 31.6 nM
[1]
  viability, T/C: 109%
[2]
  viability, T/C: 102%
[3]
  viability, T/C: 107%
[4]
  viability, T/C: 67.7%
[5]
  viability, T/C: 24.1%
[6]
  viability, T/C: 15.1%
[7]
  viability, T/C: 115%
[8]
  viability, T/C: 115%
[9]
  viability, T/C: 99.6%
[10]
  viability, T/C: 62.8%
[11]
  viability, T/C: 24.6%
[12]
  viability, T/C: 11.7%
[13]
  viability, T/C: 102%
[14]
  viability, T/C: 97.8%
[15]
  viability, T/C: 73.4%
[16]
  viability, T/C: 40.4%
[17]
  viability, T/C: 22.3%
[18]
  viability, T/C: 12.5%
[19]
  viability, T/C: 75.5%
[20]
  viability, T/C: 75.8%
[21]
  viability, T/C: 65.1%
[22]
  viability, T/C: 40.2%
[23]
  viability, T/C: 22.6%
[24]
  viability, T/C: 13.6%
[25]
  viability, T/C: 55.7%
[26]
  viability, T/C: 60.1%
[27]
  viability, T/C: 45.4%
[28]
  viability, T/C: 42%
[29]
  viability, T/C: 26.2%
[30]
  viability, T/C: 12.1%
[31]
  viability, T/C: 44.4%
[32]
  viability, T/C: 48.5%
[33]
  viability, T/C: 43.1%
[34]
  viability, T/C: 36.6%
[35]
  viability, T/C: 1.31%
[36]
  viability, T/C: 0.34%

## Cc1[nH]c2ccccc2c1CCNCc1ccc(/C=C/C(=O)NO)cc1 + Cc1[nH]c2ccc(F)cc2c1-c1nc2c3cccnc3c3ncccc3c2[nH]1
Second compound 0.0316 µM
  IC50: > 316 nM
Second compound 0.1 µM
  IC50: > 316 nM
Second compound 0.316 µM
  IC50: > 316 nM
Second compound 1 µM
  IC50: > 316 nM
Second compound 3.16 µM
  IC50: 196 nM
Second compound 10 µM
  IC50: < 0.999 nM
Second compound 0.0316 µM, first compound 0.000999 µM
  viability, T/C: 87.8%
Second compound 0.0316 µM, first compound 0.00316 µM
  viability, T/C: 100%
Second compound 0.0316 µM, first compound 0.00999 µM
  viability, T/C: 105%
[1]
  viability, T/C: 90.3%
Second compound 0.0316 µM, first compound 0.0999 µM
  viability, T/C: 93%
[3]
  viability, T/C: 96.8%
Second compound 0.1 µM, first compound 0.000999 µM
  viability, T/C: 97.4%
Second compound 0.1 µM, first compound 0.00316 µM
  viability, T/C: 98.9%
Second compound 0.1 µM, first compound 0.00999 µM
  viability, T/C: 79.9%
[7]
  viability, T/C: 89.9%
Second compound 0.1 µM, first compound 0.0999 µM
  viability, T/C: 74.6%
[9]
  viability, T/C: 70.7%
Second compound 0.316 µM, first compound 0.000999 µM
  viability, T/C: 102%
Second compound 0.316 µM, first compound 0.00316 µM
  viability, T/C: 106%
Second compound 0.316 µM, first compound 0.00999 µM
  viability, T/C: 74.6%
[13]
  viability, T/C: 97.4%
Second compound 0.316 µM, first compound 0.0999 µM
  viability, T/C: 97.8%
[15]
  viability, T/C: 96.1%
Second compound 1 µM, first compound 0.000999 µM
  viability, T/C: 116%
Second compound 1 µM, first compound 0.00316 µM
  viability, T/C: 95.8%
Second compound 1 µM, first compound 0.00999 µM
  viability, T/C: 93.8%
[19]
  viability, T/C: 101%
Second compound 1 µM, first compound 0.0999 µM
  viability, T/C: 87.9%
[21]
  viability, T/C: 88.1%
Second compound 3.16 µM, first compound 0.000999 µM
  viability, T/C: 70.8%
Second compound 3.16 µM, first compound 0.00316 µM
  viability, T/C: 75.7%
Second compound 3.16 µM, first compound 0.00999 µM
  viability, T/C: 60.9%
[25]
  viability, T/C: 66.2%
Second compound 3.16 µM, first compound 0.0999 µM
  viability, T/C: 67.1%
[27]
  viability, T/C: 38.1%
Second compound 10 µM, first compound 0.000999 µM
  viability, T/C: 32.5%
Second compound 10 µM, first compound 0.00316 µM
  viability, T/C: 33.9%
Second compound 10 µM, first compound 0.00999 µM
  viability, T/C: 52.2%
[31]
  viability, T/C: 34.4%
Second compound 10 µM, first compound 0.0999 µM
  viability, T/C: 22.3%
[33]
  viability, T/C: 25.2%

## O=C(NO)c1cnc(N2CCN(S(=O)(=O)c3ccc4ccccc4c3)CC2)nc1 + Cc1cnc(CNC(=O)c2c(=O)c3ccc(N4CCCN(C)CC4)nc3n3c2sc2ccccc23)cn1
Second compound 0.0316 µM
  IC50: 360 nM
Second compound 0.1 µM
  IC50: 406 nM
Second compound 0.316 µM
  IC50: 189 nM
Second compound 1 µM
  IC50: 82.3 nM
Second compound 3.16 µM
  IC50: < 31.6 nM
Second compound 10 µM
  IC50: < 31.6 nM
[1]
  viability, T/C: 98.6%
[2]
  viability, T/C: 78.5%
[3]
  viability, T/C: 57.9%
[4]
  viability, T/C: 2.29%
[5]
  viability, T/C: 0.07%
[6]
  viability, T/C: 0.11%
[7]
  viability, T/C: 99.3%
[8]
  viability, T/C: 88%
[9]
  viability, T/C: 63.5%
[10]
  viability, T/C: 1.62%
[11]
  viability, T/C: 0.05%
[12]
  viability, T/C: 0.11%
[13]
  viability, T/C: 84.3%
[14]
  viability, T/C: 64.7%
[15]
  viability, T/C: 39.2%
[16]
  viability, T/C: 1.28%
[17]
  viability, T/C: 0.04%
[18]
  viability, T/C: 0.08%
[19]
  viability, T/C: 55.3%
[20]
  viability, T/C: 46.6%
[21]
  viability, T/C: 27.1%
[22]
  viability, T/C: 0.1%
[23]
  viability, T/C: 0.05%
[24]
  viability, T/C: 0.09%
[25]
  viability, T/C: 41%
[26]
  viability, T/C: 53.3%
[27]
  viability, T/C: 22.9%
[28]
  viability, T/C: 0.12%
[29]
  viability, T/C: 0.1%
[30]
  viability, T/C: 0.15%
[31]
  viability, T/C: 36.9%
[32]
  viability, T/C: 9.96%
[33]
  viability, T/C: 0.28%
[34]
  viability, T/C: 0.24%
[35]
  viability, T/C: 0.17%
[36]
  viability, T/C: 0.2%

## CC1COCCN1c1cc(C2(O)CC3CCC(C2)O3)c2cnn(-c3ccn[nH]3)c2n1 (stereo not drawn) + Cc1[nH]c2ccc(F)cc2c1-c1nc2c3cccnc3c3ncccc3c2[nH]1
Second compound 0.0316 µM
  IC50: 626 nM
Second compound 0.1 µM
  IC50: 509 nM
Second compound 0.316 µM
  IC50: 293 nM
Second compound 1 µM
  IC50: 248 nM
Second compound 3.16 µM
  IC50: 35 nM
Second compound 10 µM
  IC50: < 31.6 nM
[1]
  viability, T/C: 81.3%
[2]
  viability, T/C: 73.1%
[3]
  viability, T/C: 71.7%
[4]
  viability, T/C: 35%
[5]
  viability, T/C: 25.7%
[6]
  viability, T/C: 17.6%
[7]
  viability, T/C: 88.2%
[8]
  viability, T/C: 85.7%
[9]
  viability, T/C: 59.6%
[10]
  viability, T/C: 34.1%
[11]
  viability, T/C: 25.6%
[12]
  viability, T/C: 16.6%
[13]
  viability, T/C: 71.5%
[14]
  viability, T/C: 88.2%
[15]
  viability, T/C: 47.8%
[16]
  viability, T/C: 35.2%
[17]
  viability, T/C: 24.7%
[18]
  viability, T/C: 16.2%
[19]
  viability, T/C: 71.7%
[20]
  viability, T/C: 65.5%
[21]
  viability, T/C: 45.4%
[22]
  viability, T/C: 25.4%
[23]
  viability, T/C: 16.4%
[24]
  viability, T/C: 9.51%
[25]
  viability, T/C: 52%
[26]
  viability, T/C: 28.9%
[27]
  viability, T/C: 11.3%
[28]
  viability, T/C: 5.76%
[29]
  viability, T/C: 3.99%
[30]
  viability, T/C: 3.21%
[31]
  viability, T/C: 31.2%
[32]
  viability, T/C: 16.5%
[33]
  viability, T/C: 8.68%
[34]
  viability, T/C: 2.7%
[35]
  viability, T/C: 2.23%
[36]
  viability, T/C: 2.03%
